Cytotoxicity data for 103 compounds are collected here from ChEMBL document CHEMBL3507680, “University of Dundee, Gates Library screen for HepG2 cell viability”.

The data set is described as follows: Human HepG2 cell viability assay in 384 well format. The arrangement: dose 125 nL, time 70.5 hour; concentration not given beside the values. The format is toxicity, cell-based. The following applies: HepG2 cells, read-out: Inhibition.

For `Cc1cccc(CN2CCN(C(=O)c3cccnc3O)CC2)c1`, the cytotoxicity at 70.5 h is -4.88%.

`Cc1ccc(CCNC(=O)NCCCC(N)=O)c(C)c1`: the cytotoxicity at 70.5 h amounted to 1.66%.

For the compound `Cc1cccc(CN2CCN(C(=O)c3ccc(C)[nH]c3=O)CC2)c1`, the cytotoxicity at 70.5 h is -7.34%.

For the compound `CCN(CC)C(=O)c1ccc(CNc2ncc(C#N)cc2Cl)cc1`, the cytotoxicity at 70.5 h was -7.7%.

`N#Cc1ccc(CNc2ncc(C#N)cc2Cl)cc1`: the cytotoxicity at 70.5 h came to 0.2%.

Take `O=C1C(Sc2nc(=O)ccn2C2CC2)CCN1c1ccccc1F` (stereo not drawn): the cytotoxicity at 70.5 h amounted to 2.14%.

For `c1n[nH]cc1CCCN1CCC(OC2CCCCC2)CC1`, the cytotoxicity at 70.5 h stood at 0.00847%.

For `COCCCC(=O)N1CC(=O)Nc2cc(Br)ccc21`, the cytotoxicity at 70.5 h is -3.54%.

For `Cc1nc(NC(=O)COCC(F)(F)F)ccc1Br`, the cytotoxicity at 70.5 h was 1.69%.

As for `CCC(CNS(C)(=O)=O)Oc1ccccc1C` (stereo not drawn), the cytotoxicity at 70.5 h was -3.25%.

For the compound `Cn1cc(CNCCNC(=O)Cc2ccccc2)c(-c2cccnc2)n1`, the cytotoxicity at 70.5 h was -5.62%.

For the compound `Cn1cc(CNCCc2cccnc2)c(-c2cccnc2)n1`, the cytotoxicity at 70.5 h came to 22.8%.

As for `CNC(=O)CCc1cccc(OC2CCCC2)c1`, the cytotoxicity at 70.5 h is -12.2%.

As for `CCN(C(=O)CN1CCC(c2ccccc2)C1)C1CC1` (stereo not drawn), the cytotoxicity at 70.5 h was 0.241%.

On to `O=C1CCCN1c1cccc(CNCc2cc(F)ccc2F)c1`, for which the cytotoxicity at 70.5 h was -6.99%.

Turning to `CCC(C)c1cc(C(=O)N(CC(=O)NC)c2cccc(F)c2)on1` (stereo not drawn), the cytotoxicity at 70.5 h worked out at 20.8%.

On to `CSc1ncccc1C(=O)NCC(c1ccco1)N(C)C` (stereo not drawn), for which the cytotoxicity at 70.5 h came to 4.37%.

For the compound `Cc1cc(C(=O)CN2CCN(c3nccs3)CC2)c(C)n1C1CC1`, the cytotoxicity at 70.5 h is -10.5%.

As to `O=C(c1ccc(Sc2ccccn2)cc1)N1CCCSCC1`, the cytotoxicity at 70.5 h was -10.8%.

`COc1ccc(OC)c(-n2nnnc2SCC2CCCCO2)c1` (stereo not drawn): the cytotoxicity at 70.5 h is -6.66%.

As for `Cc1cc(C)n(C2CN(c3ncnc4c3CCC4)C2)n1`, the cytotoxicity at 70.5 h was -10.3%.

`Cc1noc(CNC(=O)C(C)(C)NC(=O)OC(C)(C)C)n1`: the cytotoxicity at 70.5 h was 18.7%.

`Cc1cc(NCc2cccc(C#N)c2)ccc1C(N)=O`: the cytotoxicity at 70.5 h is 2.79%.

As to `CCc1cccc(NC(=O)CNc2ccccc2OCCC(=O)OC)c1`, the cytotoxicity at 70.5 h is -0.0313%.

As to `CC(Cn1cncn1)NC(=O)NCc1csc(N(C)C)n1` (stereo not drawn), the cytotoxicity at 70.5 h was -8.98%.

With `CNC(=O)CN(C(=O)c1cc(C(C)C)no1)c1cccc(F)c1`, the cytotoxicity at 70.5 h turned out to be 27.9%.

On to `CCC1CCCN(S(=O)(=O)c2cnc3onc(C)c3c2)C1` (stereo not drawn), for which the cytotoxicity at 70.5 h is -4.44%.

In the case of `CCN1CCCN(S(=O)(=O)c2cnc3onc(C)c3c2)CC1`, the cytotoxicity at 70.5 h is -7.12%.

As to `CC(C)(CCS(C)(=O)=O)CNC(=O)NC1CCCCC1(C)C` (stereo not drawn), the cytotoxicity at 70.5 h worked out at 28%.

As for `CC(C)(CCS(C)(=O)=O)CNC(=O)NC1CCCC1(C)C` (stereo not drawn), the cytotoxicity at 70.5 h was -6.64%.

Consider `CS(=O)(=O)CCCNCc1c(Cl)cccc1N1CCCC1`, for which the cytotoxicity at 70.5 h was -10.5%.

Regarding `Cc1cc(NCc2cccc(C#N)c2)ccc1Br`, the cytotoxicity at 70.5 h is -7.27%.

Consider `Cc1cc(NCc2cccc(C#N)c2)ccc1C(=O)N(C)C`, for which the cytotoxicity at 70.5 h was -9.77%.

Regarding `CC(C)N(Cc1ccc(Cl)c(Cl)c1)C(=O)CCn1cncn1`, the cytotoxicity at 70.5 h is -2.22%.

As to `O=C(c1cnccn1)N(CCO)Cc1cc(Br)ccc1F`, the cytotoxicity at 70.5 h was -5.51%.

Take `CN1CCC(C)(CNC(=O)c2ccc(SCc3cccnc3)cc2)CC1`: the cytotoxicity at 70.5 h was -9.14%.

For `CN1CCN(c2cccc(Cl)c2CNCCS(C)(=O)=O)CC1`, the cytotoxicity at 70.5 h was -8.06%.

For the compound `NC(=O)CCNCc1c(Cl)cccc1N1CCCC1`, the cytotoxicity at 70.5 h is -6.13%.

In the case of `Cc1ccc(CNC(=O)CCN2CCN(c3ccccn3)CC2)n1C`, the cytotoxicity at 70.5 h turned out to be 21.9%.

Turning to `COCCNC(C)c1ccc(-c2cccnc2)cc1` (stereo not drawn), the cytotoxicity at 70.5 h was found to be 0.821%.

Consider `CN(C(=O)NCCCNc1ccccn1)C1CCS(=O)(=O)C1` (stereo not drawn), for which the cytotoxicity at 70.5 h is -10.6%.

Regarding `O=C(NCC1CCS(=O)(=O)C1)Nc1ccccn1` (stereo not drawn), the cytotoxicity at 70.5 h worked out at 3.81%.

As to `O=C(Nc1ccc2c(c1)OC1(CCCCC1)O2)c1ccc(=O)[nH]n1`, the cytotoxicity at 70.5 h was 0.889%.

As for `CC1CN(c2ccc(CNC(=O)NCCO)cn2)CCO1` (stereo not drawn), the cytotoxicity at 70.5 h was -8.22%.

On to `N#Cc1cc(F)c(NCCc2ccc(F)cc2)c(F)c1`, for which the cytotoxicity at 70.5 h was -2.9%.

For `CN(C)c1ncc(CNC(=O)Nc2ccc(C(F)(F)F)cc2)n1C`, the cytotoxicity at 70.5 h is -2.76%.

With `N#Cc1cc(F)c(NCCc2cccnc2)c(F)c1`, the cytotoxicity at 70.5 h is -4.91%.

For the compound `CC(C)(C)C(=O)c1ccsc1NC(=O)CCNC(=O)c1ccco1`, the cytotoxicity at 70.5 h was -5.13%.

Take `CN(C)C(C(=O)Nc1nccs1)c1c(F)cccc1Cl` (stereo not drawn): the cytotoxicity at 70.5 h is -0.246%.

Consider `CN(c1ccc(CNc2c(Cl)cccc2C#N)cc1)S(C)(=O)=O`, for which the cytotoxicity at 70.5 h is -1.4%.

With `Cc1c(C(=O)NC2CC(C)(C)NC(C)(C)C2)cnn1-c1ccc(F)cc1`, the cytotoxicity at 70.5 h is -2.72%.

As to `CN(C1CCCC1)C(C)(C)C(=O)NCCS(C)(=O)=O`, the cytotoxicity at 70.5 h was 2.52%.

As to `Cc1cc(CNc2ccnn2CC(C)C)ccc1-n1cncn1`, the cytotoxicity at 70.5 h amounted to 7.96%.

Turning to `CCN(Cc1noc(CC(C)C)n1)Cc1ccccc1Cl`, the cytotoxicity at 70.5 h is 1.69%.

For `Cc1ccc2cc(C(=O)N3CCN(C(=O)N(C)C)CC3)ccc2n1`, the cytotoxicity at 70.5 h was -2.65%.

As to `CCc1ccc(C(=O)NCc2ccnc(C)n2)cc1`, the cytotoxicity at 70.5 h is -8.72%.

As for `O=C(c1cnc2[nH]c(=O)[nH]c(=O)c2c1)N1CCCC1C1CCCC1` (stereo not drawn), the cytotoxicity at 70.5 h was -11.9%.

Take `Cn1c(=O)[nH]c(=O)c2cc(C(=O)N3CCCC3C3CCCC3)cnc21` (stereo not drawn): the cytotoxicity at 70.5 h was 22.8%.

As for `CCN(c1ccc(C(=O)NCc2ccnc(C)n2)cc1)C(C)C`, the cytotoxicity at 70.5 h is -8.68%.

Consider `O=C(c1cnc2[nH]c(=O)[nH]c(=O)c2c1)N1CCCC1C1CCCCC1` (stereo not drawn), for which the cytotoxicity at 70.5 h is -5.02%.

`CC1CN(Cc2cccc(C#N)c2)CCN1c1ccc2nncn2n1` (stereo not drawn): the cytotoxicity at 70.5 h was -5.84%.

`CC1CN(c2ccc(C#N)cn2)CCN1c1ccc2nncn2n1` (stereo not drawn): the cytotoxicity at 70.5 h is -4.47%.

Consider `O=C1CC(NS(=O)(=O)c2ccccc2)CN1Cc1ccccc1` (stereo not drawn), for which the cytotoxicity at 70.5 h is -5.96%.

For `CCOc1ccc(C#N)cc1NC(=O)N1CCOC(C(N)=O)C1` (stereo not drawn), the cytotoxicity at 70.5 h worked out at 23%.

As to `N#Cc1ccc(N2CCN(c3ccc4nncn4n3)CC2)nc1`, the cytotoxicity at 70.5 h was -2%.

With `c1ccc2[nH]c(C3CCN(Cc4nnc(C5CC5)o4)CC3)nc2c1`, the cytotoxicity at 70.5 h is -5.81%.

For the compound `CC(C)(CNc1ccc(C#N)c(C(F)(F)F)c1)C(N)=O`, the cytotoxicity at 70.5 h turned out to be 2.06%.

As for `O=C(CN1CCSCC1c1ccccc1)N1CCOCC1` (stereo not drawn), the cytotoxicity at 70.5 h was -3.64%.

`Cc1nn(C)c(C)c1CCC(=O)Nc1cn(C)c(=O)n(C)c1=O`: the cytotoxicity at 70.5 h is -1.93%.

On to `CN(CC(F)(F)F)C(=O)CNC(=O)Cc1ccccc1O`, for which the cytotoxicity at 70.5 h was 5.05%.

Consider `Cc1oc(C(=O)O)cc1S(=O)(=O)Nc1cccc(-n2nccc2C)c1`, for which the cytotoxicity at 70.5 h was -5.02%.

For the compound `CC(C)(C)NC(=O)CNc1ccc(C#N)c(C(F)(F)F)c1`, the cytotoxicity at 70.5 h was -5.25%.

Turning to `CN(CC(F)(F)F)C(=O)CNC(=O)Cc1cccc(O)c1`, the cytotoxicity at 70.5 h was determined as 1.12%.

`Cc1cc(CCC(=O)N2CCOCC2)ccc1Br`: the cytotoxicity at 70.5 h was -5.28%.

As to `CC(NCc1cccc(S(=O)(=O)N(C)C)c1)c1ccccn1` (stereo not drawn), the cytotoxicity at 70.5 h was -6.92%.

For `CN(CC(F)(F)F)C(=O)CNC(=O)Cc1ccc(O)cc1Cl`, the cytotoxicity at 70.5 h is -9.7%.

For the compound `Cc1ccc(CCC(=O)N2CCOCC2)cc1Cl`, the cytotoxicity at 70.5 h is -6.51%.

`COC1CCCN(C(=O)c2sc(CC(C)C)nc2C)C1` (stereo not drawn): the cytotoxicity at 70.5 h was -6.5%.

Take `CSC(C)(C)CNC(=O)NCC[S+]([O-])c1ccccc1F` (stereo not drawn): the cytotoxicity at 70.5 h was -9.35%.

For `CN(C)C(=O)CC1CCOc2ccccc21` (stereo not drawn), the cytotoxicity at 70.5 h amounted to 0.971%.

With `c1ccc(-c2noc(C3CCN(CCCn4cncn4)CC3)n2)cc1`, the cytotoxicity at 70.5 h was determined as 0.0875%.

On to `CC(Cn1cccn1)NCc1csc(-c2ccccc2)n1` (stereo not drawn), for which the cytotoxicity at 70.5 h is -3.84%.

Consider `CC(C)c1nnc2n1CCN(C(=O)c1ccc3c(c1)NC(=O)CO3)C2`, for which the cytotoxicity at 70.5 h is -2.96%.

As to `c1ccc(-c2noc(C3CCN(CCn4cccn4)CC3)n2)cc1`, the cytotoxicity at 70.5 h is 12.8%.

Regarding `COCCN1CCC(c2nc3ccccc3[nH]2)CC1`, the cytotoxicity at 70.5 h is -11%.

For the compound `Cc1cnn(CC2CCCN2C(=O)Cc2cn3ccsc3n2)c1` (stereo not drawn), the cytotoxicity at 70.5 h is -6.38%.

Turning to `CNC(=O)Cc1noc(Cc2cccc(Br)c2)n1`, the cytotoxicity at 70.5 h is -9.45%.

In the case of `CCOCc1ccccc1NC(=O)NC1CCN(c2ncccn2)CC1`, the cytotoxicity at 70.5 h was -6.67%.

Take `O=C(O)c1ccc(S(=O)(=O)Nc2cccc(CC(F)(F)F)c2)c(F)c1`: the cytotoxicity at 70.5 h is -7.64%.

As for `Cn1cc(NC(=O)c2cc[nH]n2)cc(Cl)c1=O`, the cytotoxicity at 70.5 h was -5.18%.

On to `O=C(NCCc1nnc2n1CCC2)N1CCC2(CCCCC2)C1`, for which the cytotoxicity at 70.5 h was -0.937%.

With `Cn1cc(NC(=O)c2ccccn2)cc(Cl)c1=O`, the cytotoxicity at 70.5 h is -7.7%.

As to `O=C(NCCc1nnc2n1CCCCC2)N1CCC2(CCCC2)CC1`, the cytotoxicity at 70.5 h is -7.24%.

Regarding `CC(C)CC(C)N(C)C(=O)CCn1cccn1` (stereo not drawn), the cytotoxicity at 70.5 h was -6.33%.

Consider `c1cnn(CCNCc2csc(-c3ccc4c(c3)OCO4)n2)c1`, for which the cytotoxicity at 70.5 h is -1.83%.

With `CCN(C)c1ccc(CNS(=O)(=O)CC2CCCO2)cc1F` (stereo not drawn), the cytotoxicity at 70.5 h is -16%.

Turning to `CN(Cc1cccc(F)c1)C(=O)c1ccncc1Cl`, the cytotoxicity at 70.5 h was -18.9%.

For the compound `CCCn1nnnc1CN(c1ccc(C)cc1)C(C)C`, the cytotoxicity at 70.5 h is -5.93%.

Consider `CN(Cc1cccc(OC(F)(F)F)c1)C(=O)c1ccncc1F`, for which the cytotoxicity at 70.5 h is -4.4%.

With `Cc1cc(C)n(CC2CCCN2C(=O)Cc2cn3ccccc3n2)n1` (stereo not drawn), the cytotoxicity at 70.5 h is -3.71%.

Consider `COc1ccc(-c2nc(CNC(C)Cn3cccn3)cs2)cc1` (stereo not drawn), for which the cytotoxicity at 70.5 h was -12.5%.

For `CC(NCC(F)(F)F)c1ccc(S(C)(=O)=O)c(F)c1` (stereo not drawn), the cytotoxicity at 70.5 h turned out to be 12.5%.

Turning to `CC(=O)c1cccc(NCC(=O)NC(N)=O)c1`, the cytotoxicity at 70.5 h is 27.4%.
